Assay results from patent US20100254965A1, “Adenosine Signaling in Diagnosis, Treatment, and Prevention of Priapism and Erectile Dysfunction” (BOARD OF REGENTS ,THE UNIVERSITY OF TEXAS SYSTEM, priority 2006, published 2010).

Assays:
[1] = test system: corpus cavernosum of wild type, A2A-deficient and A2B-deficient mice; experiment: Intracavernous injection of adenosine: intracavernous pressure (ICP) and penile erection; type: in vivo, mouse
Description: FIG. 6. Different amounts of adenosine were injected into the corpus cavernosum of wild type, adenosine receptor A2A-deficient, and adenosine receptor A2B-deficient mice and the resulting change in ICP determined.
Methods: ADA-deficient mice and SCD transgenic mice, a well accepted priapism animal model, are the only animals known in which a persistent and prolonged penile erection occurs spontaneously. […] We have measured intracavernosal pressure and corpus cavernosal strip (CCS) relaxation with or without PEG-ADA treatment and/or a series of adenosine receptor antagonists or agonists in wild type ADA-deficient mice, and corpus cavernosal strip (CCS) relaxation with or without PEG-ADA treatment and/or a series of adenosine receptor antagonists or agonists in SCD transgenic mice, in response to nerve stimulation. We have also measured the intracavernosal pressure and CCS relaxation with or without adenosine treatment in wild type and multiple adenosine receptor deficient mice.

[2] = test system: corpus cavernosal smooth muscle cells (CCSM); experiment: cGMP levels in primary CCSM / PVSM; type: cell-based, mouse; conditions: CCSM/PVSM of both wild type and A2BR deficient mice, 10 min
Excerpt: Results for wild-type and A2B^−/− mouse were statistically significant, p<0.01.
FIG. 18. Adenosine stimulated both cAMP and cGMP induction in corpus cavernosal smooth muscle cells (CCSM) via A2BR activation. (a) Adenosine receptor expression profile in purified primary CCSM. CCSM were purified from adult mouse penes. […] (b) CCSM were isolated and cultured from mouse penes. The cells were switched to serum-free medium and treated with different concentrations of adenosine with or without A2BR antagonist (MRS1706-10 μM), A2AR antagonist (ZM241385-50 nM) or A2AR agonist (CGS-21680-10 μM) alone for 10 min. Then cellular extracts were collected and cAMP levels were measured using an ELISA kit. The data represent mean±SE. *p<0.05, adenosine treated versus the untreated; **p<0.05, adenosine plus MRS1706 or ZM241385 versus the adenosine treated. (c) CCSM were isolated from penes of the wild type and A2BR-deficient mice and cultured with or without adenosine (100 μM), NECA (10 μM), a potent adenosine receptor agonist, forskolin (10 μM), an adenylyl cyclase agonist. […] N=4. *p<0.05, adenosine, forskolin and NECA treated versus the untreated control. (d) Corpus cavernosal strips (CCS) were isolated from wild type and A2BR-deficient mice and treated with different concentrations of adenosine in the presence or absence of L-NAME (100 μM) or MRS1706 (10 μM). 10 min after treatment, cellular extracts were collected and cGMP levels were measured by using a commercial enzyme immunoassay kit (Amersham Pharmacia). Data are expressed as mean±SE. *p<0.05, adenosine treated versus the control; **p<0.05, adenosine treated with MRS1706 versus the adenosine treated; ***p<0.05, CCS of A2BR-deficient mice treated with adenosine versus the CCS of wild type mice treated with adenosine. N=6-7. (e) CCSM were isolated from wild type and A2BR deficient mice and cultured with or without adenosine (100 μM), NECA (10 μM), a potent adenosine receptor agonist, forskolin (10 μM), an adenylyl cyclase agonist, or diethylamine-NONOate (DEA/NO) (10 μM). […] N=4. *p<0.05, DEA/NO treated versus to the untreated control. (f) Both cAMP and cGMP induction contribute to adenosine-mediated decreased PE-induced phosphorylation of myosin light chain (MLC). CCSM and CCS were isolated and cultured with the treatment of phenylephrine (PE-10 μM) in the presence or absence of adenosine (100 μM) or L-NAME (100 μM). 10 min after treatment, cellular extracts were isolated and western blot analysis were performed. The total MLC and phosphorylated MLC at S20 were detected by specific antibodies.
Isolation of primary corpus cavernosal smooth muscle cells (CCSM). Corpus cavernosum tissues were dissected as described above. Cavernosal tissue was washed in PBS and minced into […] pieces. Segments were incubated in 5-10 ml enzyme solutions containing 0.02% collagenase A (0.272 U/mg protein, Roche, Mannheim, Germany) and 0.5% elastase (3.73 U/mg protein, Cell system, St Katharinen, Germany) in a 75 mm flask at 37° C. for 6 hours. Enzymatic digestion was terminated by adding 10 ml DMEM supplemented with 10% fetal calf serum (FCS). […]
Tissue and corpus cavernosum smooth muscle cell (CCSM) cAMP and cGMP measurement. Quantitative assays for cAMP and cGMP were performed by using a commercial enzyme immunoassay kit (Amersham Pharmacia). […]

[3] = test system: multiple animal models, including humans; conditions: intracavernous injection, multiple animal models, including humans; cited from earlier work

For `Nc1ncnc2c1ncn2[C@@H]1O[C@H](CO)[C@@H](O)[C@H]1O` [adenosine], the “adenosine-induced increase in ICP” value ([1]; A2B-deficient mice, injection into the corpus cavernosum) was “significantly reduced”, the “intracavernous pressure (ICP) and its duration” value ([1]; wild type mice, administration of adenosine) was “induced an increase in intracavernous pressure (ICP) and its duration” and the penile erection ([1]; wild type mice, local (intracavernous) injection) was “resulted in penile erection”. For the same compound, the cGMP levels [2] was “lack of significant differences in cGMP production”, the cGMP levels ([2]; listed as Adenosine) was “had no effect” and the “tumescence and penile erection” value [3] was “resulted in tumescence and penile erection”.
